Test system: HT-22 cells
Assay: Improvement in mitochondrial membrane potential dropped by amyloid beta (JC-1 dye)
Type: cell-based
Details: compound 5 μM, amyloid beta 5 μM, 3 hours, JC-1 green:red ratio, amyloid beta damage = 0%, normal = 100%
Procedure: Meanwhile, the compound represented by Formula 1 according to the present invention is evaluated through a test to determine recovery of mitochondrial functions damaged by amyloid beta, as described in the following Test Example. After the test, the results are shown in terms of the percentages of mitochondrial function disorder caused by amyloid beta. The degree of mitochondrial function disorder caused by amyloid beta is taken as 0% and the normal condition in the absence of amyloid beta is shown as 100%.
To a transparent 96-well plate, HT-22 cells are inoculated in a number of 30,000 per well one day before the test. On the next day, JC-1 dye (Stratagen, USA) is diluted with Opti-MEM containing no phenol red to a concentration of 7.5 μM, and the resultant dilution is used to treat the cells for 1 hour and 15 minutes. The dyed cells are washed twice with phosphate buffer solution (PBS), followed by treatment with each compound to a final concentration of 5 μM per well. Then, the cells are cultured at 37° C. for 10 minutes. Particularly, for each drug, two wells are treated with amyloid beta (5 μM) and the other two wells are treated with the vehicle control (5 μM DMSO). Then, the cells are cultured at 37° C. for 3 hours. The fluorescence intensity of each well is read by using a fluorescence plate reader at 485/535 nm (green/J-monomer) and 560/595 nm (red/J-aggregate). Then, the ratio of green:red is calculated and the results are normalized by taking the change of the ratio between addition of amyloid beta and no-addition of amyloid beta in the vehicle control non-treated with drugs as 100%.

First: CCN1CCCC1CNC(=O)c1ccc(Cn2c(CC(=O)Nc3cc(C(C)C)ccc3C)nc3ccccc32)cc1 (stereo not shown) [Compound 41, N-((1-ethylpyrrolidin-2-yl)methyl)-4-((2-(2-(5-isopropyl-2-methylphenylamino)-2-oxoethyl)-1H-benzo[d]imidazol-1-yl)methyl)benzamide]
Second: CCN1CCCC1CNC(=O)c1ccc(CSc2nc3ccccc3n2CC(=O)Nc2cc(C(C)C)ccc2C)cc1 (stereo not shown) [Compound 43, N-((1-ethylpyrrolidin-2-yl)methyl)-4-((1-(2-(5-isopropyl-2-methylphenylamino)2-oxoethyl)-1H-benzo[d]imidazol-2-ylthio)methyl)benzamide]
The “Improvement in Membrane Potential (%) (5 μM)” value (from here on “Improvement … (%) (5 μM)”) of the first is lower: 68% for the first, 70% for the second.

Compared with Cc1ccc(C(C)C)cc1NC(=O)Cn1c(-c2ccccc2)nc2ccccc21 [Compound 4, N-(5-isopropyl-2-methylphenyl)-(2-phenyl-1H-benzo[d]imidazol-1-yl)acetamide], COc1ccc(OC)c(-c2nc3ccccc3n2CC(=O)Nc2cc(C(C)C)ccc2C)c1 [Compound 1, 2-(2-(2,5-dimethoxyphenyl)-1H-benzo[d]imidazol-1-yl)-N-(5-isopropyl-2-methylphenyl)acetamide] is lower in “Improvement … (%) (5 μM)” value: 91% for the first, 41% for the second.

First: O=C(NCCCN1CCOCC1)c1ccc(Cn2c(Cc3c(Cl)cccc3Cl)nc3ccccc32)cc1 [Compound 39, 4-((2-(2,6-dichlorobenzyl)-1H-benzo[d]imidazol-1-yl)methyl)-N-(3-morpholinopropyl)benzamide]
Second: O=C(NCCCN1CCCC1)c1ccc(Cn2c(Cc3c(Cl)cccc3Cl)nc3ccccc32)cc1 [Compound 35, 4-((2-(2,6-dichlorobenzyl)-1H-benzo[d]imidazol-1-yl)methyl)-N-(3-(pyrrolidin-1-yl)propyl)benzamide]
The “Improvement … (%) (5 μM)” value of the first is lower: 76% for the first, 79% for the second.

Going from CN(C)C(=O)c1ccc(Cn2c(Cc3c(Cl)cccc3Cl)nc3ccccc32)cc1 [Compound 47, 4-((2-(2,6-dichlorobenzyl)-1H-benzo[d]imidazol-1-yl)methyl)-N,N-dimethylbenzamide] to CN1CCC(NC(=O)c2ccc(Cn3c(Cc4c(Cl)cccc4Cl)nc4ccccc43)cc2)CC1 [Compound 33, 4-((2-(2,6-dichlorobenzyl)-1H-benzo[d]imidazol-1-yl)methyl)-N-(1-methylpiperidin-4-yl)benzamide], the “Improvement … (%) (5 μM)” value rises from 73% to 81%.

Compared with Cc1cccc(C(C)(C)C)c1NC(=O)Cn1c(Cc2ccccc2)nc2ccccc21 [Compound 12, 2-(2-benzyl-1H-benzo[d]imidazol-1-yl)-N-(2-tert-butyl-6-methylphenyl)acetamide], Cc1cccc(C(C)(C)C)c1NC(=O)Cn1c(-c2cc(Cl)ccc2Cl)nc2ccccc21 [Compound 7, N-(2-tert-butyl-6-methylphenyl)-2-(2-(2,5-dichlorophenyl)-1H-benzo[d]imidazol-1-yl)acetamide] is higher in “Improvement … (%) (5 μM)” value: 38% for the first, 41% for the second.

Compared with Cc1ccc(C(C)C)cc1NC(=O)Cn1c(SCc2ccc(C(=O)NCCCN3CCCCC3)cc2)nc2ccccc21 [Compound 46], Cc1ccc(C(C)C)cc1NC(=O)Cc1nc2ccccc2n1Cc1ccc(C(=O)NCCCN2CCCCC2)cc1 [Compound 44] is higher in “Improvement … (%) (5 μM)” value: 67% for the first, 80% for the second.

First: Cc1ccc(C(C)C)cc1NC(=O)Cn1c(Cc2ccc(Cl)c(Cl)c2)nc2ccccc21 [Compound 21, 2-(2-(3,4-dichlorobenzyl)-1H-benzo[d]imidazol-1-yl)-N-(5-isopropyl-2-methylphenyl)acetamide]
Second: COc1ccc(OC)c(Cc2nc3ccccc3n2CC(=O)Nc2cc(C(C)C)ccc2C)c1 [Compound 19, 2-(2-(2,5-dimethoxybenzyl)-1H-benzo[d]imidazol-1-yl)-N-(5-isopropyl-2-methylphenyl)acetamide]
The “Improvement … (%) (5 μM)” value of the first is lower: 57% for the first, 81% for the second.

Going from Cc1ccc(C(C)C)cc1NC(=O)Cn1c(SCc2ccc(C(=O)NCCCN(C)C)cc2)nc2ccccc21 [Compound 45, N-(3-(dimethylamino)propyl)-4-((1-(2-(5-isopropyl-2-methylphenylamino)-2-oxoethyl)-1H-benzo[d]imidazol-2-ylthio)methyl)benzamide] to Cc1ccc(C(C)C)cc1NC(=O)Cc1nc2ccccc2n1Cc1ccc(C(=O)NCCCN(C)C)cc1 [Compound 42, N-(3-(dimethylamino)propyl)-4-((2-(2-(5-isopropyl-2-methylphenylamino)2-oxoethyl)-1H-benzo[d]imidazol-1-yl)methyl)benzamide], the “Improvement … (%) (5 μM)” value rises from 59% to 68%.

Compared with CC(C)(C)c1cc(NC(=O)Cn2c(-c3ccccc3)nc3ccccc32)cc(C(C)(C)C)c1 [Compound 13, N-(3,5-di-tert-butylphenyl)-2-(2-phenyl-1H-benzo[d]imidazol-1-yl)acetamide], CC(C)(C)c1cc(NC(=O)Cn2c(Cc3ccc(Cl)c(Cl)c3)nc3ccccc32)cc(C(C)(C)C)c1 [Compound 24, N-(3,5-di-tert-butylphenyl)-2-(2-(3,4-dichlorobenzyl)-1H-benzo[d]imidazol-1-yl)acetamide] is lower in “Improvement … (%) (5 μM)” value: 86% for the first, 42% for the second.

Compared with O=C(NCCN1CCCCC1)c1ccc(Cn2c(Cc3c(Cl)cccc3Cl)nc3ccccc32)cc1 [Compound 38, 4-((2-(2,6-dichlorobenzyl)-1H-benzo[d]imidazol-1-yl)methyl)-N-(3-(piperidin-1-yl)ethyl)benzamide], CN1CCN(CCCNC(=O)c2ccc(Cn3c(Cc4c(Cl)cccc4Cl)nc4ccccc43)cc2)CC1 [Compound 36, 4-((2-(2,6-dichlorobenzyl)-1H-benzo[d]imidazol-1-yl)methyl)-N-(3-(4-methylpiperazin-1-yl)propyl)benzamide] is lower in “Improvement … (%) (5 μM)” value: 89% for the first, 86% for the second.

First: O=C(Cn1c(-c2cc(Cl)ccc2Cl)nc2ccccc21)Nc1cc(Cl)cc(Cl)c1 [Compound 5, N-(3,5-dichlorophenyl)-2-(2-(2,5-dichlorophenyl)-1H-benzo[d]imidazol-1-yl)acetamide]
Second: O=C(Cn1c(-c2cc(Cl)ccc2Cl)nc2cc(Cl)ccc21)Nc1cc(Cl)cc(Cl)c1 [Compound 27, 2-(5-chloro-2-(2,5-dichlorophenyl)-1H-benzo[d]imidazol-1-yl)-N-(3,5-dichlorophenyl)acetamide]
The “Improvement … (%) (5 μM)” value of the first is higher: 91% for the first, 77% for the second.

First: O=C(Cn1c(-c2ccccc2)nc2ccccc21)Nc1cc(Cl)cc(Cl)c1 [Compound 15, N-(3,5-dichlorophenyl)-2-(2-phenyl-1H-benzo[d]imidazol-1-yl)acetamide]
Second: Cc1ccc(C(C)C)cc1NC(=O)Cn1c(-c2ccccc2)nc2ccccc21 [Compound 14, N-(5-isopropyl-2-methylphenyl)-2-(2-phenyl-1H-benzo[d]imidazol-1-yl)acetamide]
The “Improvement … (%) (5 μM)” value of the first is lower: 69% for the first, 73% for the second.

Cc1ccc(C(C)C)cc1NC(=O)Cn1c(-c2cc(Cl)ccc2Cl)nc2cc(Cl)ccc21 [Compound 26, 2-(5-chloro-2-(2,5-dichlorophenyl)-1H-benzo[d]imidazol-1-yl)-N-(5-isopropyl-2-methylphenyl)acetamide] was tested, and the “Improvement … (%) (5 μM)” value was 60%.
